Values after ≈ are worked out from the molar mass of the structure shown.
Assays:
[1] = tested on: Staphylococcus aureus 489; experiment: broth micro-dilution MIC; assay type: cell-based
Experimental: (§1) The MIC's were determined using a standard broth micro-dilution assay.

[2] = tested on: Staphylococcus aureus 446; experiment: broth micro-dilution MIC; assay type: cell-based
Experimental: as §1

[3] = tested on: Entercoccus faecium 180-1; experiment: broth micro-dilution MIC; assay type: cell-based
Experimental: as §1

[4] = tested on: Staphylococcus aureus SA1199A; experiment: broth micro-dilution MIC; assay type: cell-based
Experimental: as §1

[5] = tested on: Staphylococcus aureus 447; experiment: broth micro-dilution MIC; assay type: cell-based
Experimental: as §1

[6] = tested on: Staphylococcus aureus SA1199; experiment: broth micro-dilution MIC; assay type: cell-based
Experimental: as §1

[7] = tested on: Staphylococcus aureus X400; experiment: broth micro-dilution MIC; assay type: cell-based
Experimental: as §1

[8] = tested on: Streptococcus pyogenes C203; experiment: broth micro-dilution MIC; assay type: cell-based
Experimental: as §1

[9] = tested on: Staphylococcus aureus 491; experiment: broth micro-dilution MIC; assay type: cell-based
Experimental: as §1

[10] = tested on: Staphylococcus aureus X778; experiment: broth micro-dilution MIC; assay type: cell-based
Experimental: as §1

Entercoccus faecium 276 = experiment: broth micro-dilution MIC; assay type: cell-based
Experimental: as §1

[11] = tested on: Staphylococcus epidermidis 270; experiment: broth micro-dilution MIC; assay type: cell-based
Experimental: (§2) The formula I compounds have in vitro and in vivo activity against Gram-positive pathogenic bacteria. The MIC's were determined using a standard broth micro-dilution assay.

[12] = tested on: Enterococcus gallinarum 245; experiment: broth micro-dilution MIC; assay type: cell-based; conditions: Enterococcus gallinarum 245
Experimental: as §2

[13] = tested on: Staphylococcus haemolyticus 415; experiment: broth micro-dilution MIC; assay type: cell-based
Experimental: as §2

[14] = tested on: Streptococcus pneumoniae P1; experiment: broth micro-dilution MIC; assay type: cell-based
Experimental: as §2

Entercoccus faecium 2041 = experiment: broth micro-dilution MIC; assay type: cell-based; conditions: Entercoccus faecium 2041
Experimental: as §2

[15] = tested on: Staphylococcus haemolyticus 105; experiment: broth micro-dilution MIC; assay type: cell-based
Experimental: as §2

Entercoccus faecium 180 = experiment: broth micro-dilution MIC; assay type: cell-based; conditions: Entercoccus faecium 180
Experimental: as §2

[16] = tested on: vancomycin-susceptible enterococci; experiment: broth micro-dilution, mean geometric MIC; assay type: cell-based, Enterococcus faecium and Enterococcus faecalis; conditions: enterococci, 24-hour incubation
[17] = tested on: Staphylococcus aureus S13E; assay type: cell-based
Experimental: as §1

[18] = tested on: Staphylococcus aureus SA1199B; assay type: cell-based
Experimental: as §1

[19] = tested on: vancomycin-resistant enterococci; experiment: broth micro-dilution, mean geometric MIC; assay type: cell-based, Enterococcus faecium and Enterococcus faecalis; conditions: enterococci, 24-hour incubation

SMILES | MIC [1] | MIC [2] | MIC [3] | MIC [4] | MIC [5] | MIC [6] | MIC [7] | MIC [8] | MIC [9] | MIC [10] | MIC (Entercoccus faecium 276) | MIC [11] | MIC [12] | MIC [13] | MIC [14] | MIC (Entercoccus faecium 2041) | MIC [15] | MIC (Entercoccus faecium 180) | MIC [17] | MIC [18] | further results
CNC(CC(C)C)C(=O)NC1C(=O)NC(CC(N)=O)C(=O)NC2C(=O)NC3C(=O)NC(C(=O)NC(C(=O)O)c4cc(O)cc(O)c4-c4cc3ccc4O)C(OC3CC(C)(N)C(O)C(C)O3)c3ccc(c(Cl)c3)Oc3cc2cc(c3OC2OC(CO)C(O)C(O)C2OC2CC(C)(NCc3cc4ccccc4c4ccccc34)C(O)C(C)O2)Oc2ccc(cc2Cl)C1O (stereo not drawn) [Compound 11] | 1 mg/L (≈ 0.561 µM) | 4 mg/L (≈ 2.24 µM) | ≤ 0.06 mg/L | ≤ 0.06 mg/L | 4 mg/L (≈ 2.24 µM) | 2 mg/L (≈ 1.12 µM) | 0.5 mg/L (≈ 0.28 µM) | ≤ 0.06 mg/L | 1 mg/L (≈ 0.561 µM) | 0.25 mg/L (≈ 0.14 µM) | 1 mg/L (≈ 0.561 µM) | 2 mg/L (≈ 1.12 µM) | ≤ 0.06 mg/L | 2 mg/L (≈ 1.12 µM) | ≤ 0.06 mg/L | 0.5 mg/L (≈ 0.28 µM) | 4 mg/L (≈ 2.24 µM) | 1 mg/L (≈ 0.561 µM) | 0.5 mg/L (≈ 0.28 µM) | 2 mg/L (≈ 1.12 µM) | mean geometric MIC, Vancomycin Sensitive Strains [16]: 0.22 mg/L
CNC(CC(C)C)C(=O)NC1C(=O)NC(CC(N)=O)C(=O)NC2C(=O)NC3C(=O)NC(C(=O)NC(C(=O)O)c4cc(O)cc(O)c4-c4cc3ccc4O)C(OC3CC(C)(N)C(O)C(C)O3)c3ccc(c(Cl)c3)Oc3cc2cc(c3OC2OC(CO)C(O)C(O)C2OC2CC(C)(NCc3c4ccccc4cc4ccccc34)C(O)C(C)O2)Oc2ccc(cc2Cl)C1O (stereo not drawn) [Compound 13] | 1 mg/L (≈ 0.561 µM) | 2 mg/L (≈ 1.12 µM) | ≤ 0.06 mg/L | ≤ 0.06 mg/L | 8 mg/L (≈ 4.49 µM) | 0.5 mg/L (≈ 0.28 µM) | 1 mg/L (≈ 0.561 µM) | ≤ 0.06 mg/L | 2 mg/L (≈ 1.12 µM) | 2 mg/L (≈ 1.12 µM) | 0.5 mg/L (≈ 0.28 µM) | 8 mg/L (≈ 4.49 µM) | 0.25 mg/L (≈ 0.14 µM) | 1 mg/L (≈ 0.561 µM) | ≤ 0.06 mg/L | 0.125 mg/L (≈ 0.0701 µM) | 8 mg/L (≈ 4.49 µM) | 2 mg/L (≈ 1.12 µM) | 0.25 mg/L (≈ 0.14 µM) | 4 mg/L (≈ 2.24 µM) | mean geometric MIC, Vancomycin Sensitive Strains [16]: 0.76 mg/L; mean geometric MIC, Vancomycin Resistant Strains [19]: 19 mg/L
CNC(CC(C)C)C(=O)NC1C(=O)NC(CC(N)=O)C(=O)NC2C(=O)NC3C(=O)NC(C(=O)NC(C(=O)O)c4cc(O)cc(O)c4-c4cc3ccc4O)C(OC3CC(C)(N)C(O)C(C)O3)c3ccc(c(Cl)c3)Oc3cc2cc(c3OC2OC(CO)C(O)C(O)C2OC2CC(C)(NCc3ccc(OCCCC#N)cc3)C(O)C(C)O2)Oc2ccc(cc2Cl)C1O (stereo not drawn) [Compound 55] | 1 mg/L (≈ 0.566 µM) | 0.5 mg/L (≈ 0.283 µM) | ≤ 0.06 mg/L | ≤ 0.06 mg/L | 4 mg/L (≈ 2.27 µM) | 0.5 mg/L (≈ 0.283 µM) | ≤ 0.06 mg/L | ≤ 0.06 mg/L | 0.5 mg/L (≈ 0.283 µM) | 0.5 mg/L (≈ 0.283 µM) | 0.5 mg/L (≈ 0.283 µM) | 1 mg/L (≈ 0.566 µM) |  |  | ≤ 0.06 mg/L | 0.125 mg/L (≈ 0.0708 µM) | 4 mg/L (≈ 2.27 µM) | 2 mg/L (≈ 1.13 µM) | 0.5 mg/L (≈ 0.283 µM) | 0.5 mg/L (≈ 0.283 µM) | mean geometric MIC, Vancomycin Sensitive Strains [16]: 1.7 mg/L; mean geometric MIC, Vancomycin Resistant Strains [19]: 13 mg/L
CNC(CC(C)C)C(=O)NC1C(=O)NC(CC(N)=O)C(=O)NC2C(=O)NC3C(=O)NC(C(=O)NC(C(=O)O)c4cc(O)cc(O)c4-c4cc3ccc4O)C(OC3CC(C)(N)C(O)C(C)O3)c3ccc(c(Cl)c3)Oc3cc2cc(c3OC2OC(CO)C(O)C(O)C2OC2CC(C)(NCc3ccc4c(c3)OCCO4)C(O)C(C)O2)Oc2ccc(cc2Cl)C1O (stereo not drawn) [Compound 56] | 1 mg/L (≈ 0.575 µM) | 0.5 mg/L (≈ 0.287 µM) | ≤ 0.06 mg/L | ≤ 0.06 mg/L | 2 mg/L (≈ 1.15 µM) | 0.125 mg/L (≈ 0.0718 µM) | ≤ 0.06 mg/L | ≤ 0.06 mg/L | 0.5 mg/L (≈ 0.287 µM) | 0.125 mg/L (≈ 0.0718 µM) | 0.25 mg/L (≈ 0.144 µM) | 1 mg/L (≈ 0.575 µM) | 16 mg/L (≈ 9.19 µM) | 16 mg/L (≈ 9.19 µM) | ≤ 0.06 mg/L | 0.25 mg/L (≈ 0.144 µM) | 4 mg/L (≈ 2.3 µM) | 2 mg/L (≈ 1.15 µM) | 0.125 mg/L (≈ 0.0718 µM) | 0.5 mg/L (≈ 0.287 µM) | mean geometric MIC, Vancomycin Resistant Strains [19]: 19 mg/L
CNC(CC(C)C)C(=O)NC1C(=O)NC(CC(N)=O)C(=O)NC2C(=O)NC3C(=O)NC(C(=O)NC(C(=O)O)c4cc(O)cc(O)c4-c4cc3ccc4O)C(OC3CC(C)(N)C(O)C(C)O3)c3ccc(c(Cl)c3)Oc3cc2cc(c3OC2OC(CO)C(O)C(O)C2OC2CC(C)(NCc3ccc4c(c3O)Cc3ccccc3-4)C(O)C(C)O2)Oc2ccc(cc2Cl)C1O (stereo not drawn) [Compound 103] | ≤ 0.06 mg/L | 0.5 mg/L (≈ 0.28 µM) | ≤ 0.06 mg/L | ≤ 0.06 mg/L | 1 mg/L (≈ 0.56 µM) | 1 mg/L (≈ 0.56 µM) | ≤ 0.06 mg/L | ≤ 0.06 mg/L | 1 mg/L (≈ 0.56 µM) | 0.5 mg/L (≈ 0.28 µM) | 0.25 mg/L (≈ 0.14 µM) | 1 mg/L (≈ 0.56 µM) | 8 mg/L (≈ 4.48 µM) | 8 mg/L (≈ 4.48 µM) | ≤ 0.06 mg/L | ≤ 0.06 mg/L | 4 mg/L (≈ 2.24 µM) |  | 1 mg/L (≈ 0.56 µM) | 2 mg/L (≈ 1.12 µM) | mean geometric MIC, Vancomycin Sensitive Strains [16]: 0.33 mg/L; mean geometric MIC, Vancomycin Resistant Strains [19]: 4.0 mg/L
CNC(CC(C)C)C(=O)NC1C(=O)NC(CC(N)=O)C(=O)NC2C(=O)NC3C(=O)NC(C(=O)NC(C(=O)O)c4cc(O)cc(O)c4-c4cc3ccc4O)C(OC3CC(C)(N)C(O)C(C)O3)c3ccc(c(Cl)c3)Oc3cc2cc(c3OC2OC(CO)C(O)C(O)C2OC2CC(C)(NCc3ccc(OCCC4CCCCC4)cc3)C(O)C(C)O2)Oc2ccc(cc2Cl)C1O (stereo not drawn) [Compound 127] | 2 mg/L (≈ 1.11 µM) | 1 mg/L (≈ 0.553 µM) | ≤ 0.06 mg/L |  | 2 mg/L (≈ 1.11 µM) | 2 mg/L (≈ 1.11 µM) | 2 mg/L (≈ 1.11 µM) | ≤ 0.06 mg/L | 1 mg/L (≈ 0.553 µM) | 1 mg/L (≈ 0.553 µM) | ≤ 0.06 mg/L | ≤ 0.06 mg/L | 4 mg/L (≈ 2.21 µM) | 4 mg/L (≈ 2.21 µM) | ≤ 0.06 mg/L | ≤ 0.06 mg/L | 2 mg/L (≈ 1.11 µM) | ≤ 0.06 mg/L | 2 mg/L (≈ 1.11 µM) | 2 mg/L (≈ 1.11 µM) | mean geometric MIC, Vancomycin Sensitive Strains [16]: 0.33 mg/L; mean geometric MIC, Vancomycin Resistant Strains [19]: 1.2 mg/L

Source: patent publication US5840684A, “Glycopeptide antibiotic derivatives” (Eli Lilly and Company, priority 1995, dated 1998)
